Our source for the IC50 values is patent US11820766B2, “Monoacylglycerol lipase modulators” (Janssen Pharmaceutica NV, priority 2018, dated 2023).

Counter-ions that a name gives are not always drawn.

What is called IC50 is the point on the concentration scale where inhibition reaches its midpoint.

The first test addresses T1, human MGL from HeLa cells (Homo sapiens, UniProt Q99685).
T1 construct: combining endogenously expressed MGL from HeLa cells with test compounds; endogenous in cells; host or cells: HeLa cells / cell homogenates
T1 sequence (Q99685 1-303): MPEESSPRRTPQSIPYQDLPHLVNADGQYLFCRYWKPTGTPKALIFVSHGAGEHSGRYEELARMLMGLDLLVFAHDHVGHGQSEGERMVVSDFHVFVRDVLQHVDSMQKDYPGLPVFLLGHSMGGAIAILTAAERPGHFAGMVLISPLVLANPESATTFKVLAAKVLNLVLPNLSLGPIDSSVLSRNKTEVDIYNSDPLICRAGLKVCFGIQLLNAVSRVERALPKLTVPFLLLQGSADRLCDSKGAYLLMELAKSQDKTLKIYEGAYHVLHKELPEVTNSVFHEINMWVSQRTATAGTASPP
The test can be described thus: In vitro MGL activity assay: [glycerol-1,3-3H]-oleyl glycerol cleavage by MGL from HeLa cells. Format: biochemical. Conditions: 300 nM [Glycerol-1,3-3H]-oleyl glycerol, one hour. The text has this: MGL is the predominant hydrolase in HeLa cells/cell homogenates.
`COc1cc(Cl)cc(-c2c3c(nn2C)[C@H](C)N(C(=O)c2ccc4ncccc4c2)CC3)c1` [Example 513, [(7S)-3-(3-Chloro-5-methoxy-phenyl)-2,7-dimethyl-5,7-dihydro-4H-pyrazolo[3,4-c]pyridin-6-yl]-(6-quinolyl)methanone] showed an IC50 of 10.5 nM. On the same count and under the same terms, for `C[C@H]1c2nn(C)c(-c3cc(F)c(F)c(F)c3)c2CCN1C(=O)c1c[nH]c2cc(F)ccc12` [Example 358, [(7S)-2,7-Dimethyl-3-(3,4,5-trifluorophenyl)-5,7-dihydro-4H-pyrazolo[3,4-c]pyridin-6-yl]-(6-fluoro-1H-indol-3-yl)methanone] the value was 37.6 nM. Same read-out and setting: the result for `COc1nccc(C(=O)N2CCc3c(nn(C)c3-c3ccc(F)c(OC(F)F)c3)[C@@H]2C)c1C` [Example 595, [(7S)-3-[3-(Difluoromethoxy)-4-fluoro-phenyl]-2,7-dimethyl-5,7-dihydro-4H-pyrazolo[3,4-c]pyridin-6-yl]-(2-methoxy-3-methyl-4-pyridyl)methanone] reads 106 nM; that for `COc1ccc(F)cc1-c1c2c(nn1C)[C@H](C)N(C(=O)c1ccc3ncccc3c1)CC2` [Example 508, [(7S)-3-(5-Fluoro-2-methoxy-phenyl)-2,7-dimethyl-5,7-dihydro-4H-pyrazolo[3,4-c]pyridin-6-yl]-(6-quinolyl)methanone], 70 nM. With `C[C@H]1c2nn(C)c(-c3cc(F)c(F)c(F)c3)c2CCN1C(=O)c1c(F)cnc2c1ccn2C` [Example 370, [(7S)-2,7-Dimethyl-3-(3,4,5-trifluorophenyl)-5,7-dihydro-4H-pyrazolo[3,4-c]pyridin-6-yl]-(5-fluoro-1-methyl-pyrrolo[2,3-b]pyridin-4-yl)methanone], the half-inhibitory concentration (IC50) came to 0.3 nM.

In the case of `C[C@H]1c2nn(C)c(-c3cc(F)cc4ccoc34)c2CCN1C(=O)c1ccc2ncccc2c1` [Example 536, [(7S)-3-(5-Fluorobenzofuran-7-yl)-2,7-dimethyl-5,7-dihydro-4H-pyrazolo[3,4-c]pyridin-6-yl]-(6-quinolyl)methanone], the IC50 was found to be 20 nM.

`C[C@H]1c2nn(C)c(-c3cc(F)c(F)c(F)c3)c2CCN1C(=O)c1nn(C)c2cnccc12` [Example 431, [(7S)-2,7-Dimethyl-3-(3,4,5-trifluorophenyl)-5,7-dihydro-4H-pyrazolo[3,4-c]pyridin-6-yl]-(1-methylpyrazolo[3,4-c]pyridin-3-yl)methanone.TFA salt] returned an IC50 of 95.3 nM. The same measure, in the same setting: for `C[C@H]1c2nn(C)c(-c3cc(F)c(F)c(F)c3)c2CCN1C(=O)c1nc(C2CC2)n2ccccc12` [Example 421, (3-Cyclopropylimidazo[1,5-a]pyridin-1-yl)-[(7S)-2,7-dimethyl-3-(3,4,5-trifluorophenyl)-5,7-dihydro-4H-pyrazolo[3,4-c]pyridin-6-yl]methanone] the value was 6.66 nM; for `C[C@H]1c2nn(C)c(-c3cc(F)c(F)c(F)c3)c2CCN1C(=O)c1ncnc2ccccc12` [Example 482, [(7S)-2,7-Dimethyl-3-(3,4,5-trifluorophenyl)-5,7-dihydro-4H-pyrazolo[3,4-c]pyridin-6-yl]-quinazolin-4-yl-methanone], 6.22 nM. `C[C@H]1c2nn(C)c(-c3cc(F)c(F)c(F)c3)c2CCN1C(=O)c1cccc2c1oc(=O)n2C` [Example 589, 7-[(7S)-2,7-dimethyl-3-(3,4,5-trifluorophenyl)-5,7-dihydro-4H-pyrazolo[3,4-c]pyridine-6-carbonyl]-3-methyl-1,3-benzoxazol-2-one] returned an IC50 of 1.84 nM.

Molecule `C[C@H]1c2nn(C)c(-c3cc(F)c(F)c(F)c3)c2CCN1C(=O)c1cccc2c1OCCN2` [Example 592, 3,4-Dihydro-2H-1,4-benzoxazin-8-yl-[(7S)-2,7-dimethyl-3-(3,4,5-trifluorophenyl)-5,7-dihydro-4H-pyrazolo[3,4-c]pyridin-6-yl]methanone] had an IC50 of 7.31 nM. The molecule `C[C@H]1c2nn(C)c(-c3cc(F)c(F)c(F)c3)c2CCN1C(=O)c1cnn2c1NCCC2C(F)(F)F` (stereo partly drawn) [Example 558, ((S)-2,7-Dimethyl-3-(3,4,5-trifluorophenyl)-4,5-dihydro-2H-pyrazolo[3,4-c]pyridin-6 (7H)-yl)(7-(trifluoromethyl)-4,5,6,7-tetrahydropyrazolo[1,5-a]pyrimidin-3-yl)methanone] came in with an IC50 of 1800 nM. Same read-out and setting: for `COc1cc(Cl)cc(-c2c3c(nn2C)[C@H](C)N(C(=O)c2c(C)nc4ccc(F)cn24)CC3)c1` [Example 406, [(7S)-3-(3-Chloro-5-methoxy-phenyl)-2,7-dimethyl-5,7-dihydro-4H-pyrazolo[3,4-c]pyridin-6-yl]-(6-fluoro-2-methyl-imidazo[1,2-a]pyridin-3-yl)methanone] the value was 22.6 nM; for `C[C@H]1c2nn(C)c(-c3cc(F)c(F)c(F)c3)c2CCN1C(=O)c1n[nH]c2cccnc12` [Example 436, [(7S)-2,7-Dimethyl-3-(3,4,5-trifluorophenyl)-5,7-dihydro-4H-pyrazolo[3,4-c]pyridin-6-yl]-(1H-pyrazolo[4,3-b]pyridin-3-yl)methanone], 175 nM; for `Cc1ccc2cc(C(=O)N3CCc4c(nn(C)c4-c4cc(F)c(F)c(F)c4)[C@@H]3C)ccc2n1` [Example 548, [(7S)-2,7-Dimethyl-3-(3,4,5-trifluorophenyl)-5,7-dihydro-4H-pyrazolo[3,4-c]pyridin-6-yl]-(2-methyl-6-quinolyl)methanone], 16.2 nM.

`C[C@H]1c2nn(C)c(-c3cc(F)c(F)c(F)c3)c2CCN1C(=O)c1nccn2cccc12` [Example 415, [(7S)-2,7-Dimethyl-3-(3,4,5-trifluorophenyl)-5,7-dihydro-4H-pyrazolo[3,4-c]pyridin-6-yl]-pyrrolo[1,2-a] pyrazin-1-yl-methanone] returned an IC50 of 13.3 nM.

Still in this test, the particulars now being: 300 nM [Glycerol-1,3-3H]-oleyl glycerol, one hour incubation.
The molecule `C[C@@H]1c2nn(C)c(-c3cccc(Cl)c3)c2CCN1C(=O)c1cnc2ccoc2c1` (single isomer, unassigned) [Example 127] had a 50% inhibitory concentration (IC50) of over 10000 nM. On the same count and under the same terms, the result for `C[C@H]1c2nn(C)c(-c3cc(F)c(F)c(F)c3)c2CCN1C(=O)c1c[nH]c2ccncc12` [Example 218, (S)-(2,7-Dimethyl-3-(3,4,5-trifluorophenyl)-2,4,5,7-tetrahydro-6H-pyrazolo[3,4-c]pyridin-6-yl)(1H-pyrrolo[3,2-c]pyridin-3-yl)methanone] reads 35.2 nM.

`C[C@H]1c2nn(C)c(-c3cc(F)cc(F)c3)c2CCN1C(=O)c1cccc2c1ccn2CCF` [Example 150, (S)-(3-(3,5-Difluorophenyl)-2,7-dimethyl-2,4,5,7-tetrahydro-6H-pyrazolo[3,4-c]pyridin-6-yl)(1-(2-fluoroethyl)-1H-indol-4-yl)methanone] yielded a half-inhibitory concentration (IC50) of 0.67 nM. On the same count and under the same terms, the result for `C[C@H]1c2nn(C)c(-c3cc(F)c(F)c(F)c3)c2CCN1C(=O)c1ccc(OC(F)F)cc1` [Example 264, [4-(Difluoromethoxy)phenyl]-[(7S)-2,7-dimethyl-3-(3,4,5-trifluorophenyl)-5,7-dihydro-4H-pyrazolo[3,4-c]pyridin-6-yl]methanone] reads 213 nM; that for `C[C@H]1c2nn(C)c(-c3cc(F)c(F)c(F)c3)c2CCN1C(=O)c1cnn(C(F)(F)F)c1` [Example 329, [(7S)-2,7-Dimethyl-3-(3,4,5-trifluorophenyl)-5,7-dihydro-4H-pyrazolo[3,4-c]pyridin-6-yl]-[1-(trifluoromethyl)pyrazol-4-yl]methanone], 5080 nM. In the case of `Cn1nc2c(c1-c1ccccc1)CCN(C(=O)c1cnc3ccccn13)C2` [Example 81, Imidazo[1,2-a]pyridin-3-yl(2-methyl-3-phenyl-2,4,5,7-tetrahydro-6H-pyrazolo[3,4-c]pyridin-6-yl)methanone], half-maximal inhibition (IC50) required 1320 nM. The same measure, in the same setting: for `CC1c2nn(C)c(-c3cn(C)c4ccccc34)c2CCN1C(=O)c1ccc2ncccc2c1` (stereo not shown) [Example 251, (2,7-Dimethyl-3-(1-methyl-1H-indol-3-yl)-2,4,5,7-tetrahydro-6H-pyrazolo[3,4-c]pyridin-6-yl)(quinolin-6-yl)methanone] the value was 1890 nM. In turn, `C[C@H]1c2nn(C)c(-c3cc(F)c(F)c(F)c3)c2CCN1C(=O)c1cccc2ccn(C)c12` [Example 206, (S)-(2,7-Dimethyl-3-(3,4,5-trifluorophenyl)-2,4,5,7-tetrahydro-6H-pyrazolo[3,4-c]pyridin-6-yl)(1-methyl-1H-indol-7-yl)methanone] came in with an IC50 of 4.91 nM. The same measure, in the same setting: for `C[C@H]1c2nn(C)c(-c3cc(F)cc(F)c3)c2CCN1C(=O)c1cc2nccnc2cc1F` [Example 171, (S)-(3-(3,5-Difluorophenyl)-2,7-dimethyl-2,4,5,7-tetrahydro-6H-pyrazolo[3,4-c]pyridin-6-yl)(7-fluoroquinoxalin-6-yl)methanone] the value was 13 nM; for `COc1ccc(C(=O)N2CCc3c(nn(C)c3-c3cc(F)c(F)c(F)c3)[C@@H]2C)c(F)c1` [Example 265, [(7S)-2,7-Dimethyl-3-(3,4,5-trifluorophenyl)-5,7-dihydro-4H-pyrazolo[3,4-c]pyridin-6-yl]-(2-fluoro-4-methoxy-phenyl)methanone], 35 nM; for `CN1CCOc2cc(C(=O)N3CCc4c(nn(C)c4-c4ccccc4)C3)ccc21` [Example 27, (4-Methyl-3,4-dihydro-2H-benzo[b][1,4]oxazin-7-yl)(2-methyl-3-phenyl-2,4,5,7-tetrahydro-6H-pyrazolo[3,4-c]pyridin-6-yl)methanone], 290 nM. The same measure, in the same setting: for `Cn1nc2c(c1-c1ccccc1)CCN(C(=O)c1cccc(OC(F)(F)F)n1)C2` [Example 25, (2-Methyl-3-phenyl-2,4,5,7-tetrahydro-6H-pyrazolo[3,4-c]pyridin-6-yl)(6-(trifluoromethoxy)pyridin-2-yl)methanone] the value was 2430 nM.
